# In patent publication US11572590B2, “Methods for evaluating tumor cell spheroids using 3D microfluidic cell culture device” (Dana-Farber Cancer Institute, Inc., priority 2017, dated 2023):
# Like-named read-outs stand apart in the source and are kept apart here.
# Tests used:
# off-target kinases [1] = molecular target: off-target kinases (Homo sapiens, UniProt Q02750, S218D/S222D); assay: SelectScreen Kinase Profiling, single point inhibition and IC50 for off-target kinases; format: biochemical; details: MAP2K1 (MEK1) S218D S222D (mutant), LanthaScreen Binding
# off-target kinases (Homo sapiens, UniProt Q02750, S218D/S222D), sequence (Q02750 whole entry S218D/S222D): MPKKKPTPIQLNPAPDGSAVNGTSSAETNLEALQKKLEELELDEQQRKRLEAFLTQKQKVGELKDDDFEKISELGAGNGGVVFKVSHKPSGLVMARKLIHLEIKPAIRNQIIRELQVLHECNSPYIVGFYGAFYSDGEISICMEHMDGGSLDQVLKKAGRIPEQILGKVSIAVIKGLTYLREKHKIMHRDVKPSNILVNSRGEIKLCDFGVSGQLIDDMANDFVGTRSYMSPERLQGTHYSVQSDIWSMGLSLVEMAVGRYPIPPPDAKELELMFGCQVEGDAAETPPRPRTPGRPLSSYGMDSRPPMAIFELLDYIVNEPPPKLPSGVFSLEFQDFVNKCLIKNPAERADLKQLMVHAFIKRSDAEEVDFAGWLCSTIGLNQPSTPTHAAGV
# off-target kinases [2] = molecular target: off-target kinases (Homo sapiens, UniProt Q9UM73, L1196M); assay: as above; format: biochemical; details: ALKL1196M (mutant), LanthaScreen Binding
# off-target kinases (Homo sapiens, UniProt Q9UM73, L1196M), sequence (Q9UM73 19-1620 L1196M): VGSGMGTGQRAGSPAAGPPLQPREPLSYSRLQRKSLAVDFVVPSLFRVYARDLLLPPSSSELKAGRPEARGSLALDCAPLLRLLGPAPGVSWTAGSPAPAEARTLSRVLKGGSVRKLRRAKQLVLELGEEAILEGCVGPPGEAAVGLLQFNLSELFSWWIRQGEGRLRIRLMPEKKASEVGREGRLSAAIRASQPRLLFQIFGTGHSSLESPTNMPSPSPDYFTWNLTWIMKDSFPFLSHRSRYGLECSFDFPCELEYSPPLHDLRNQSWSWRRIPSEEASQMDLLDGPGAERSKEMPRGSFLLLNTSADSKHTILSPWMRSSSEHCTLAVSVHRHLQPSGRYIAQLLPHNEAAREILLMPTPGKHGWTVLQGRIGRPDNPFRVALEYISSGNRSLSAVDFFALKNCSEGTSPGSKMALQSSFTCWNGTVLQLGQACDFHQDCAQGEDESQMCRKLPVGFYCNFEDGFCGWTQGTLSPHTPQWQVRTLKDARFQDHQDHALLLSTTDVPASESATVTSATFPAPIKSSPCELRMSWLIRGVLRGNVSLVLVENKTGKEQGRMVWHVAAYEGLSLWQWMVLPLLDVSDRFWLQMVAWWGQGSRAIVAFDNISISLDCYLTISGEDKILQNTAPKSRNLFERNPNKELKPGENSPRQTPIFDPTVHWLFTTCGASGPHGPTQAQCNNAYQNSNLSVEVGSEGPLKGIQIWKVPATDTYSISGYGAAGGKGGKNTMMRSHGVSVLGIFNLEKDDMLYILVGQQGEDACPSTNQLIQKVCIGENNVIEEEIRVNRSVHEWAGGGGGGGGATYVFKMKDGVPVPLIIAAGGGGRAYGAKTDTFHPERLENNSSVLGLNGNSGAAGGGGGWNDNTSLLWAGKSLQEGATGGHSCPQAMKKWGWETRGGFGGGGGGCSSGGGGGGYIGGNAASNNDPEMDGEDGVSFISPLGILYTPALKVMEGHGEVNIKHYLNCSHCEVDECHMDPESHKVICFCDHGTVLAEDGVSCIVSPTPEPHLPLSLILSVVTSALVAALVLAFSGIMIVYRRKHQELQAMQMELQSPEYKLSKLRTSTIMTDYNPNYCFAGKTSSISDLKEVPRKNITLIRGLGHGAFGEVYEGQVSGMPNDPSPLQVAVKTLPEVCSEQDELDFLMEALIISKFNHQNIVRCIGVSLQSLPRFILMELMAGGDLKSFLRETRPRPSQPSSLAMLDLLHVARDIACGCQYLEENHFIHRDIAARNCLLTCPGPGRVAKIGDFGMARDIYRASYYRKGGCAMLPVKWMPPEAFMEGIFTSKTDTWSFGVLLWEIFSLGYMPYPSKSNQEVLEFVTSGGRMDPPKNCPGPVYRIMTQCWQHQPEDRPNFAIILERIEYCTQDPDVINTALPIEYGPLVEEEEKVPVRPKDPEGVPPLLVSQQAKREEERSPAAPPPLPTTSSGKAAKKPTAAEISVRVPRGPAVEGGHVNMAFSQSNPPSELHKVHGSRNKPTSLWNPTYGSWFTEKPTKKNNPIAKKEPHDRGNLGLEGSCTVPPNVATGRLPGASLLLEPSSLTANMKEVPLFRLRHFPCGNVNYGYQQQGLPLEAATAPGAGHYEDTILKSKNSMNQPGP
# CT26 MDOTS = assay: Bead-based cytokine profiling of CT26 MDOTS; format: cell-based, murine; details: Cmpd1 (1 μM) ± anti-PD-1 (10 μg/mL)
# Procedure: Fresh tumor specimens (murine and human patients) were received in media (DMEM) on ice and minced in a 10 cm dish (on ice) using sterile forceps and scalpel. Minced tumor was resuspended in DMEM ([…], […] sodium pyruvate, 1:100 penicillin-streptomycin) (Corning CellGro, Manassas, Va.) +10% FBS (Gemini Bio-Products, West Sacramento, Calif.), 100 U/mL collagenase type IV (Life Technologies, Carlsbad, Calif.), and 15 mM HEPES (Life Technologies, Carlsbad, Calif.), except for CT26 tumors that were prepared in RPMI. Samples were pelleted and resuspended in 10-20 mL media. Red blood cells were removed from visibly bloody samples using RBC Lysis Buffer (Boston Bio-Products, Ashland, Mass.). […]
# Two multiplex assays were performed utilizing a bead-based immunoassay approach, the Bio-Plex Pro™ Human Cytokine 40-plex Assay (Cat #171AK99MR2) and Bio-Plex Pro™ Mouse Cytokine Panel 1, 23-plex (Cat #M60009RDPD) on a Bio-plex 200 system (Cat #171000201). […] Fold changes relative to the MDOT/PDOT control were calculated and plotted as log 2FC. Lower and upper limits of quantitation (LLOQ/ULOQ) were imputed from standard curves for cytokines above or below detection. […]
# off-target kinases [3] = molecular target: off-target kinases (Homo sapiens, UniProt P06241); assay: SelectScreen Kinase Profiling, single point inhibition and IC50 for off-target kinases; format: biochemical; parameters: other: FYN A; 1000 μM; details: FYN A, LanthaScreen Binding
# off-target kinases (Homo sapiens, UniProt P06241), sequence (P06241 whole entry): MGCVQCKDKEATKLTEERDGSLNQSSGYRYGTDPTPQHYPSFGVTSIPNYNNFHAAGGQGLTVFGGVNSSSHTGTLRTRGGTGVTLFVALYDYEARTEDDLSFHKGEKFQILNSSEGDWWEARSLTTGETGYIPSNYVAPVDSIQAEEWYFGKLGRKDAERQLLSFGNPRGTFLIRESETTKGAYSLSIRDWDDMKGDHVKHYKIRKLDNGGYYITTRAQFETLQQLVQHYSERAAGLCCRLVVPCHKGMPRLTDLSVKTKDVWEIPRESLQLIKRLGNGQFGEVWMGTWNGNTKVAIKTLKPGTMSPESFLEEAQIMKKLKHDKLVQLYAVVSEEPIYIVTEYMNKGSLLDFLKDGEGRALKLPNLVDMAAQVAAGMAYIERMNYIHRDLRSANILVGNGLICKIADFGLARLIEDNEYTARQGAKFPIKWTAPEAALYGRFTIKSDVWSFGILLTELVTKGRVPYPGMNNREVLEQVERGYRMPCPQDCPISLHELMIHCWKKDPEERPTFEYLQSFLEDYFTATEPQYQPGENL
# Procedure: Biochemical single point inhibition and IC50 concentrations for TBK1, IKKε (IKBKE), and off-target kinases were determined at ThermoFisher Scientific using SelectScreen Kinase Profiling Services (Madison, Wis., USA) (Tables S4A and S4B-1-7). To determine cellular potency, the human colorectal cancer carcinoma cell line HCT116 (ATCC, Manassas, Va.) was maintained in T175 flasks in complete RPMI medium; RPMI 1640 supplemented with 10% FBS, 1× Penicillin-Streptomycin solution and 1×MEM (non-essential amino acids). HCT116 cells were grown to 90-95% confluency in T175 flasks containing complete RPMI medium and transfected in bulk using Lipofectamine 2000 (Invitrogen, Carlsbad, Calif.) with 70 μg of ISG54-luciferase reporter plasmid (Elim Biopharmaceuticals Inc., Hayward, Calif.). The reporter plasmid contains a luciferase gene expression cassette under the transcriptional regulation of the promoter of the human interferon stimulated gene 54 (ISG54). […] The assay plates were incubated for 5 hours at 37° C., followed by addition of One-Glo luciferase firefly reagent (Promega, Madison, Wis.) at 1:1 volume/well and luminescence was measured in an EnVision Multilabel Plate Reader (PerkinElmer, Santa Clara, Calif.). The EC50 values were calculated from the fit of the dose-response curves to a four-parameter equation. […]
smiles,measurement,setting,value
"N#Cc1cc(-c2ncnc(Nc3ccc(N4CCN(C5COC5)CC4)cc3)n2)ccc1OC1CCOCC1 [Compound 1, 5-(4-((4-(4-(oxetan-3-yl)piperazin-1-yl)phenyl)amino)-1,3,5-triazin-2-yl)-2-((tetrahydro-2H-pyran-4-yl)oxy)benzonitrile]",inhibition,off-target kinases [1]; read-out: % Inhibition 1,10%
same,inhibition,off-target kinases [1]; read-out: % Inhibition 2,7%
same,inhibition,off-target kinases [1]; read-out: % Inhibition Avg,8%
same,inhibition,off-target kinases [2]; read-out: % Inhibition 1,1%
same,inhibition,off-target kinases [2]; read-out: % Inhibition 2,9%
same,inhibition,off-target kinases [2]; read-out: % Inhibition Avg,5%
same,"cytokines involved in activated innate immune responses (e.g., G-CSF) in CT26 MDOTS",CT26 MDOTS,concomitant induction
same,"levels of CCL4, CCL3, and IL-1β in CT26 MDOTS",CT26 MDOTS,Decreased levels
same,inhibition,off-target kinases [3]; read-out: % Inhibition 1,16%
same,inhibition,off-target kinases [3]; read-out: % Inhibition 2,21%
